Experimental data as given in patent EP4321514B1, “COMPOUND HAVING ALK INHIBITORY ACTIVITY, PREPARATION METHOD THEREFOR AND USE THEREOF” (CGeneTech (Suzhou, China) Co., Ltd., priority 2021, dated 2022).

Assays:
[1] = test system: human anaplastic large cell lymphoma cell Karpas 299; assay: ALK gene fusion cell proliferation inhibition test (CCK-8); format: cell-based; conditions: 72 hours incubation, CCK-8, absorbance at 450 nm
Procedure: The 96-well culture plate was placed in a 5 % carbon dioxide incubator at 37 °C to be cultured overnight. A test compound was formulated into a 10 mM storage solution with DMSO, and the 10mM storage solution was gradually diluted with DMSO at a dilution ration of 1:4 to obtain 9 concentration gradients of solutions of the test compound. The test compound was diluted with culture medium to 5 times the set final concentration of corresponding action, and the diluted solution of the test compound was added at 25 µL/well to corresponding cell wells according to the set compound layout, and then incubated in a 5 % carbon dioxide incubator at 37 °C for 72 hours. After 72 hours, 10 µL of CCK-8 was added into a cell culture medium, and the culture solution was sucked from adherent cells, then a freshly prepared CCK-8 detection solution was added and the cells were incubated in a 37 °C incubator for 1-4 hours. The absorbance at 450 nm wavelength on the SpectraMax i3X Microplate Reader was measured after gently shaking, with the absorbance at 650 nm as a reference.

[2] = target: T1, ALK kinase (Homo sapiens, UniProt Q9UM73); assay: ALK kinase inhibition test; format: biochemical; conditions: 0.4 ng/well ALK kinase, 5 µM ATP, fluorescence 665 nm/615 nm
T1 construct: purchased Thermo Scientific
Procedure: The inhibitory activity of the compound in the present application on ALK kinase will be determined through in vitro tests, which can be represented by IC50 value.
4 µL of the diluted solution of the test compound and 2 µL of 0.4 ng/well ALK kinase solution (Thermo Scientific) were added into reaction wells in turn, incubated for 10 min at room temperature, then 4 µL of 0.7 µM biotin-labeled tyrosine kinase substrate and 5 µM ATP solution were added to start the kinase reaction.
Software Graphpad Prism 6 was used to fit an IC50 curve and calculate an IC50 value.

T1 sequence (Q9UM73 19-1620): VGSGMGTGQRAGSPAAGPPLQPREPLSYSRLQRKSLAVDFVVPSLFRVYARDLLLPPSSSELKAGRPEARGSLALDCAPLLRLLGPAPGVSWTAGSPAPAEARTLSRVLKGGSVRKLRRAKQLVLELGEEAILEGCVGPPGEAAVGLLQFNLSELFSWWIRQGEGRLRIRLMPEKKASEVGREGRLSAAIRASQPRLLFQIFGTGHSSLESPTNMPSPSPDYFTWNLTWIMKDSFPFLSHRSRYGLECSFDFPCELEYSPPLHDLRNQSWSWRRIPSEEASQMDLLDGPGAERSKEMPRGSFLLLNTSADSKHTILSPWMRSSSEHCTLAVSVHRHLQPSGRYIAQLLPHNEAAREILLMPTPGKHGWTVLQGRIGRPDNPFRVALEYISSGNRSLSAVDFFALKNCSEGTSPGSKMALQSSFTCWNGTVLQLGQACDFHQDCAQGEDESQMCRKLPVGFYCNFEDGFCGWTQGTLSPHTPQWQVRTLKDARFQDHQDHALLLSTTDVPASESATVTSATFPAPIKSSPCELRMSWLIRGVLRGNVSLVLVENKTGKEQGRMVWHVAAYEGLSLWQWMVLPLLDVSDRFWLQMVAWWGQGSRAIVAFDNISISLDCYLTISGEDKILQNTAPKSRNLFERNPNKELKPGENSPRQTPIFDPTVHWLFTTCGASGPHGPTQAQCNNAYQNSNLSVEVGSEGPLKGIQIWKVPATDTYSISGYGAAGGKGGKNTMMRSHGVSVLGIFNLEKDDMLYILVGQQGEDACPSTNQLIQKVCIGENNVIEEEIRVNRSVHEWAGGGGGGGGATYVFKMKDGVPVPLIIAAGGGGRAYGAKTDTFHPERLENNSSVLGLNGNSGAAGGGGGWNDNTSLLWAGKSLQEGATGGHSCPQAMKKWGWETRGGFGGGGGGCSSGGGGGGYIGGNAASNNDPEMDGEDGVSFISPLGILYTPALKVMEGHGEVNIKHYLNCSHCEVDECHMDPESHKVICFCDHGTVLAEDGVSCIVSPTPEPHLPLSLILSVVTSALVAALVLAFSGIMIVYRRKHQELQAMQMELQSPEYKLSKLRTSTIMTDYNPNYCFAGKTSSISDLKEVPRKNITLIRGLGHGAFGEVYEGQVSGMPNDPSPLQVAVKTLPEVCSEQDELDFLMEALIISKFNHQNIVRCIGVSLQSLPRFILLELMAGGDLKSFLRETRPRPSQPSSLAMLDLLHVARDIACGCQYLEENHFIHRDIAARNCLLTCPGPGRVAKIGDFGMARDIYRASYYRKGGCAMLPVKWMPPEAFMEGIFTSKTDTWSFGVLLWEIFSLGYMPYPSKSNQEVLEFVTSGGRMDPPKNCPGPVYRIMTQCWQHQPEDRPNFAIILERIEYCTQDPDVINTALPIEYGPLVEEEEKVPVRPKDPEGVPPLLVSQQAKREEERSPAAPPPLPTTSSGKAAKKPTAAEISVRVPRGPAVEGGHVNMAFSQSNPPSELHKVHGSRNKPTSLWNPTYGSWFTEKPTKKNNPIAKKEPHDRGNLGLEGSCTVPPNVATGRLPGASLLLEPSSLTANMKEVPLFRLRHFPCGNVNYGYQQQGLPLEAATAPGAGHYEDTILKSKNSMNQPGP

| Compound | IC50 [1] [nM] | IC50 [2] [nM] |
| --- | --- | --- |
| CC#Cc1ccc2c3c([nH]c2c1)C(C)(C)c1cc(N2CCC(N4CCOCC4)CC2)c(CC)cc1C3=O [Example E27, 9-ethyl-6,6-dimethyl-8-(4-morpholinopiperidin-1-yl)-3-(prop-1-yn-1-yl)-5,6-dihydro-11H-benzo[b]carbazol-11-one] | 110 | 10.2 |
| C#Cc1ccc2c3c([nH]c2c1)C(C)(C)c1cc(N2CCC(N4CCOCC4)CC2)c(Cl)cc1C3=O [Example E23, 9-chloro-3-ethynyl-6,6-dimethyl-8-(4-morpholinopiperidin-1-yl)-5,6-dihydro-11H-benzo[b]carbazol-11-one] | 22.2 | 2.61 |
| C#Cc1ccc2c3c([nH]c2c1)C(C)(C)c1cc(C2CCNCC2)c(CC)cc1C3=O [Example E8, 9-ethyl-3-ethynyl-6,6-dimethyl-8-(piperidin-4-yl)-5,6-dihydro-11H-benzo[b]carbazol-11-one] | 109 | 6.6 |
| C#Cc1ccc2c3c([nH]c2c1)C(C)(C)c1cc(N2CCC(N4CCCC4)CC2)c(CC)cc1C3=O [Example E5, 9-ethyl-3-ethynyl-6,6-dimethyl-8-(4-(pyrrolidin-1-yl)piperidin-1-yl)-5,6-dihydro-11H-benzo[b]car bazol-11-one] | 24.9 | 13.8 |
| C#Cc1ccc2c3c([nH]c2c1)C(C)(C)c1cc(C2CCN(C4CC4)CC2)c(CC)cc1C3=O [Example E10, 8-(1-cyclopropylpiperidin-4-yl)-9-ethyl-3-ethynyl-6,6-dimethyl-5,6-dihydro-11H-benzo[b]carbazol-11-one] | 208 | 20.5 |
| C#Cc1ccc2c3c([nH]c2c1)C(C)(C)c1cc(N2CCC(N4CCOCC4)CC2)c(CC)cc1C3=O [Example E1, 9-ethyl-3-ethynyl-6,6-dimethyl-8-(4-morpholinopiperidin-1-yl)-5,6-dihydro-11H-benzo[b]carbazol-11-one] | 7.34 | 5.09 |
